Legend:
Format in all cases: subcellular
[1] = biological target: T1, Mitogen-activated protein kinase kinase kinase 7 (Homo sapiens) (UniProt O43318); experiment: Inhibition of TAK1 in human HeLa cells lysate at 2 uM pre incubated for 15 mins followed by ATP acyl phosphate probe addition and measured after 10 mins by LC-MS/MS analysis relative to control; conditions: time 25.0 min
T1 sequence (whole entry): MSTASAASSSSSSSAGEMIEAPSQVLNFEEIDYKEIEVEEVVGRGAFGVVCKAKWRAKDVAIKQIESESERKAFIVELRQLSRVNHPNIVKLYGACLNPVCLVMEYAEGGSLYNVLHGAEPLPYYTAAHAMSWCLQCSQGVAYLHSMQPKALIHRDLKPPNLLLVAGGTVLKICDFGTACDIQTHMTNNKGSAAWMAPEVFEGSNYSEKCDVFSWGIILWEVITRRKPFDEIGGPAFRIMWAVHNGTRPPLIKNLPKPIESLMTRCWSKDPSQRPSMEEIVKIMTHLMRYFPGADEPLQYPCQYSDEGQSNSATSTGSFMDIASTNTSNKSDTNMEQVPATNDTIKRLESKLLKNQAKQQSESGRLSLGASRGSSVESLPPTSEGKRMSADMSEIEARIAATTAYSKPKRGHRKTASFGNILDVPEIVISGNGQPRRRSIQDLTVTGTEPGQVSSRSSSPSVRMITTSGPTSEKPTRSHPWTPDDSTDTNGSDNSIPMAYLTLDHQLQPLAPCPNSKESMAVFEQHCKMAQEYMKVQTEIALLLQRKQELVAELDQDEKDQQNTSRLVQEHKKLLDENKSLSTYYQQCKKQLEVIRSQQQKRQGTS

[2] = biological target: Interferon-induced, double-stranded RNA-activated protein kinase (Homo sapiens, UniProt P19525); experiment: Inhibition of PKR in human HeLa cells lysate at 50 uM pre incubated for 15 mins followed by ATP acyl phosphate probe addition and measured after 10 mins by LC-MS/MS analysis relative to control; conditions: time 25.0 min
[3] = biological target: Mitogen-activated protein kinase kinase kinase 2 (Homo sapiens) (UniProt Q9Y2U5); experiment: Inhibition of MAP3K2 in human HeLa cells lysate at 10 uM pre incubated for 15 mins followed by ADP acyl phosphate probe addition and measured after 10 mins by LC-MS/MS analysis relative to control; conditions: time 25.0 min
[4] = biological target: Mitogen-activated protein kinase kinase kinase 1 (Homo sapiens, UniProt Q13233); experiment: Inhibition of MAP3K1 in human HeLa cells lysate at 2 uM pre incubated for 15 mins followed by ADP acyl phosphate probe addition and measured after 10 mins by LC-MS/MS analysis relative to control; conditions: time 25.0 min
[5] = biological target: Dual specificity mitogen-activated protein kinase kinase 3 (Homo sapiens, UniProt P46734); experiment: Inhibition of MAP2K3 in human HeLa cells lysate pre incubated for 15 mins followed by ATP acyl phosphate probe addition and measured after 10 mins by LC-MS/MS analysis
[6] = biological target: T2, Mixed lineage kinase domain-like protein (Homo sapiens) (UniProt Q8NB16); experiment: Inhibition of MLKL in human HeLa cells lysate at 10 uM pre incubated for 15 mins followed by ATP acyl phosphate probe addition and measured after 10 mins by LC-MS/MS analysis relative to control; conditions: time 25.0 min
T2 sequence (whole entry): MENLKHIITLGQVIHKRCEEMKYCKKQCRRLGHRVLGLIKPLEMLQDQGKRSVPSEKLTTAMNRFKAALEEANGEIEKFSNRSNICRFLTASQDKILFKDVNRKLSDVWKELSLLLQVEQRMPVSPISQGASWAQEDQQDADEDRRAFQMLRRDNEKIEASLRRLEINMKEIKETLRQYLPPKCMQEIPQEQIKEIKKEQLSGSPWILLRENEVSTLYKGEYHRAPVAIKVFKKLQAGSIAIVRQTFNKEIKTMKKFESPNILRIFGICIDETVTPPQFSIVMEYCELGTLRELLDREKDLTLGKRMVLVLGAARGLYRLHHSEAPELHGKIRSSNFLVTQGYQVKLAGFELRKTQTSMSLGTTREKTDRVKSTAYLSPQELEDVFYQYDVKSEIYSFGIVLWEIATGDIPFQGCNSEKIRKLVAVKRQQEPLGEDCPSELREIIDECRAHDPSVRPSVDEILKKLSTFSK

[7] = biological target: T3, Phosphatidylinositol 5-phosphate 4-kinase type-2 alpha (Homo sapiens) (UniProt P48426); experiment: Inhibition of PIP5K2A LIP site in human HeLa cells lysate at 50 uM pre incubated for 15 mins followed by ADP acyl phosphate probe addition and measured after 10 mins by LC-MS/MS analysis relative to control; conditions: time 25.0 min
T3 sequence (whole entry): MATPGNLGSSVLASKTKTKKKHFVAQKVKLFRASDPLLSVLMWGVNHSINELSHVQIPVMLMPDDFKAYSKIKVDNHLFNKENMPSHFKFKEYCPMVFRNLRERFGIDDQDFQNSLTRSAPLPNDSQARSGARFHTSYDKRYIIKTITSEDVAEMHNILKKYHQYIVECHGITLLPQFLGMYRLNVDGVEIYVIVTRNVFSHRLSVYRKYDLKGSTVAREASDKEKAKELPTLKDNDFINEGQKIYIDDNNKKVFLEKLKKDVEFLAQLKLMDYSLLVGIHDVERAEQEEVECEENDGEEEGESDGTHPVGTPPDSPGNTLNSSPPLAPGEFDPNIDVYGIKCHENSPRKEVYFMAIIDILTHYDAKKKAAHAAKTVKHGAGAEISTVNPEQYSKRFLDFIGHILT

[8] = biological target: T4, Serine/threonine-protein kinase 4 (Homo sapiens) (UniProt Q13043); experiment: Inhibition of MST1 in human HeLa cells lysate at 10 uM pre incubated for 15 mins followed by ADP acyl phosphate probe addition and measured after 10 mins by LC-MS/MS analysis relative to control; conditions: time 25.0 min
T4 sequence (whole entry): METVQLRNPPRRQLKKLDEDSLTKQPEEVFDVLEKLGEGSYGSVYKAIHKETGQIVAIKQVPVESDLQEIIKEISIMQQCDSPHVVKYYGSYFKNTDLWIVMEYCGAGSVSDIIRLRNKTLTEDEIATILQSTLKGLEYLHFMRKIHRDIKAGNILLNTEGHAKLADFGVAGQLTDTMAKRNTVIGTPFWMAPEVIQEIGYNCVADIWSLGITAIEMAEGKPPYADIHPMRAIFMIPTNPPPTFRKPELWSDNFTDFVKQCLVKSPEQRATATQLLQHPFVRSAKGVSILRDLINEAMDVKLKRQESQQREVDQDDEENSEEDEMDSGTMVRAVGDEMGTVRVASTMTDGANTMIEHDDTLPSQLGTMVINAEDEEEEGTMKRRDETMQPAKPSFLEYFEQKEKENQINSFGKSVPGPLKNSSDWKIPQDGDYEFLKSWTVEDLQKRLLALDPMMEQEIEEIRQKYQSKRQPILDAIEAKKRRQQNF

Mitogen-activated protein kinase kinase kinase 2 (Homo sapiens), sequence (Q9Y2U5 whole entry): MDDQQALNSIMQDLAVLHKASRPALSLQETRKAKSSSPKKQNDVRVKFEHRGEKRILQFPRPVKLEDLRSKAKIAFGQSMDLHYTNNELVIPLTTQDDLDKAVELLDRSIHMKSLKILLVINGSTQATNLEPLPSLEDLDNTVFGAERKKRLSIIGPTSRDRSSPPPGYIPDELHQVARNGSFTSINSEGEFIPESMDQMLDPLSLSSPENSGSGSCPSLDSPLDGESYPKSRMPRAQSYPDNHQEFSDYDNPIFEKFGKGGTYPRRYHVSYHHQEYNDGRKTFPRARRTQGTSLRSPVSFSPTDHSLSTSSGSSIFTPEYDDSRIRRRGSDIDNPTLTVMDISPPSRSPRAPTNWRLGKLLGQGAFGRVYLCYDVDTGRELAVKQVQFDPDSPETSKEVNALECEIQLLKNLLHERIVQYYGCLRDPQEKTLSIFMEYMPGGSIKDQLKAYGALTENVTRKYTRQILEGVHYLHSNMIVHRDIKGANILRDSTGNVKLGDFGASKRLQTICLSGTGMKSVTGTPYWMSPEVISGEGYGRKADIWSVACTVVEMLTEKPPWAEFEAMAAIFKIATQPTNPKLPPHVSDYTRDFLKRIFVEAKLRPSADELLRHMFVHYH
Dual specificity mitogen-activated protein kinase kinase 3, sequence (P46734 whole entry, the tested form may be a part): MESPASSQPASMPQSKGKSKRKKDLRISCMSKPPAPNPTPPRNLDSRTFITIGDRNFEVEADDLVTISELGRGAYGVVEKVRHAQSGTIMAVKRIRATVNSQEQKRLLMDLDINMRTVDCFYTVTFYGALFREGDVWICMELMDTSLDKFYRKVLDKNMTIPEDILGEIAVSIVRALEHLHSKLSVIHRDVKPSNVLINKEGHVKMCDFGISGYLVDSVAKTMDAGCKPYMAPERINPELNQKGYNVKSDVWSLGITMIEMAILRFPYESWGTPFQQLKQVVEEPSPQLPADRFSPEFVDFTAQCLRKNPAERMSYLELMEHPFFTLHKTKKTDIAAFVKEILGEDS
Interferon-induced, double-stranded RNA-activated protein kinase, sequence (P19525 whole entry): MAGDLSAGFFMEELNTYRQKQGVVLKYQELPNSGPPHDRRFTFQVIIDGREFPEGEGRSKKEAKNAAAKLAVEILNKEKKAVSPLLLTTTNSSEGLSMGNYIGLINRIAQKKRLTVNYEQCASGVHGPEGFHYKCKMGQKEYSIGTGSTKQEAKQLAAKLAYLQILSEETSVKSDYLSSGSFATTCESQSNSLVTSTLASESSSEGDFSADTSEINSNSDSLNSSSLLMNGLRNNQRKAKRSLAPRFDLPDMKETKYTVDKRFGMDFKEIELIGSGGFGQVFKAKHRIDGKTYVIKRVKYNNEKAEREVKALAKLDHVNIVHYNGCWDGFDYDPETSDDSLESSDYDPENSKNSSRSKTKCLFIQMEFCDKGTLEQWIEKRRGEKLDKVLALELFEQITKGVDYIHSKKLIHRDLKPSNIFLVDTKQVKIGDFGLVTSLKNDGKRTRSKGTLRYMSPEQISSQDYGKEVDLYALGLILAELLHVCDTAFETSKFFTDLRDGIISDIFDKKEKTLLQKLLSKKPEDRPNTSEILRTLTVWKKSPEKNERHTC
Mitogen-activated protein kinase kinase kinase 1, sequence (Q13233 whole entry): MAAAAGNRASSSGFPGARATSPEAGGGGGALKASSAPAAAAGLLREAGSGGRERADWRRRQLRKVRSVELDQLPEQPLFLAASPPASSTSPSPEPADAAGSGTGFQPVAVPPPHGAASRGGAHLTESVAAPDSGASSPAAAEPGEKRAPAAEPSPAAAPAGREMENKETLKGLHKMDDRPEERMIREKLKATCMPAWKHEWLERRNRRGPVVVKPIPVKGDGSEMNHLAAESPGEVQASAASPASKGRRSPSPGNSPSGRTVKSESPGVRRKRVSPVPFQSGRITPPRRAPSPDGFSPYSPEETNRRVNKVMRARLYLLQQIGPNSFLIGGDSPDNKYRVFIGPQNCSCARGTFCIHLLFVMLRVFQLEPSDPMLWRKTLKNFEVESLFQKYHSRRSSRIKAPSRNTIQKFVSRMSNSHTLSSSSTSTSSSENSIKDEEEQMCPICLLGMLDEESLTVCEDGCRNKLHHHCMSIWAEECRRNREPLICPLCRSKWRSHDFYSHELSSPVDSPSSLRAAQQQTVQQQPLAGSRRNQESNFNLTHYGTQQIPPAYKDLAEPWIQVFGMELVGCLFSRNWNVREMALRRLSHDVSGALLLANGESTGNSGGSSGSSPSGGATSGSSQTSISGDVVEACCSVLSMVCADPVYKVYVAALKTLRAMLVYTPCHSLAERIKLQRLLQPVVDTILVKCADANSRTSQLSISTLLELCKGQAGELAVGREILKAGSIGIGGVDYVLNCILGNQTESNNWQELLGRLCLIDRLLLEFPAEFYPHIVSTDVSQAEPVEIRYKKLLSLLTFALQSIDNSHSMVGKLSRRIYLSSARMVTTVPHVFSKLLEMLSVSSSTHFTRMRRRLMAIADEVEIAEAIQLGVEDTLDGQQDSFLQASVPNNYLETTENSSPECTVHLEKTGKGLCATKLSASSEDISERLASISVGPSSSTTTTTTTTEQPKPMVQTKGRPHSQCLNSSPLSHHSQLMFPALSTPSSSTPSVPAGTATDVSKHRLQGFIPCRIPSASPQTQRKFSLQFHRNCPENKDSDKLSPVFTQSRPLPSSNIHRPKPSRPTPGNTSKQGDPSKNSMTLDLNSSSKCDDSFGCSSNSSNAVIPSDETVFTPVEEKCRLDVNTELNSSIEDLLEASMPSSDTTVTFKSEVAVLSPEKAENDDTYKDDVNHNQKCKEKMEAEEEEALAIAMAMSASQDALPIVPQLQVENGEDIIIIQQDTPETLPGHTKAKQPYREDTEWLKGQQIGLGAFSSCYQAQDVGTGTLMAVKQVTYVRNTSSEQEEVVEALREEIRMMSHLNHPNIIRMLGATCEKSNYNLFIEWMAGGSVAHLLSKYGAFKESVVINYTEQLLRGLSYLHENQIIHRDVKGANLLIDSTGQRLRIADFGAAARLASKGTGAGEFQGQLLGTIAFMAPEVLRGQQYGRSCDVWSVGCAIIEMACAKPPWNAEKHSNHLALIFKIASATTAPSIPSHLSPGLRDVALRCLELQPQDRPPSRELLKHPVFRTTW

**Q.** Which inhibition [1] does the source give for `CCOc1cc(N2CCC(O)CC2)ccc1Nc1ncc2c(n1)N(C)c1ccccc1C(=O)N2C` here?
**A.** Its inhibition is -4.8%.

**Q.** And the inhibition [2]?
**A.** The inhibition was -8.3%.

**Q.** And the inhibition [3]?
**A.** The inhibition was 36.2%.

**Q.** And the inhibition [4]?
**A.** The inhibition was 11.5%.

**Q.** And the IC50 [5]?
**A.** The IC50 was greater than 50 µM.

**Q.** And the inhibition [6]?
**A.** The inhibition was -9.8%.

**Q.** What about the inhibition [7] of the same compound?
**A.** Its inhibition is 15.1%.

**Q.** What about the inhibition [8] of the same compound?
**A.** Its inhibition is 30.1%.

Reference: ChEMBL document CHEMBL5661979, “Pharmacological inhibition of BMK1 suppresses tumor growth through promyelocytic leukemia protein” (Cancer Cell, 2010)
